Assay: method code SF-AS, from Ploquin, J.; Sparfel, L.; LeBaut, G.; Floc'h, R.; Welin, L.; Petit, Y.; Henry, N. (1974). Pyrophthalones. III. Properties of gamma-pyrophthalones. Eur J Med Chem, 9(5)526-533.
Settings: pH 7.4

CC(C)CN1C=CC(=C2C(=O)c3ccccc3C2=O)C=C1
logD: 2.76

CC(C)N1C=CC(=C2C(=O)c3ccccc3C2=O)C=C1
logD: 2.44

O=C1C(=C2C=CN(Cc3ccccc3)C=C2)C(=O)c2ccccc21
logD: 2.99

CN1C=CC(=C2C(=O)c3ccccc3C2=O)C=C1
logD: 1.6

O=C1C(=C2C=CN(CC(O)CO)C=C2)C(=O)c2ccccc21 (centres undefined)
logD: 1.36

CCCCCN1C=CC(=C2C(=O)c3ccccc3C2=O)C=C1
logD: 3.27

CC1=CC(=C2C(=O)c3ccccc3C2=O)C=CN1CC(C)C
logD: 2.82

CC(O)CN1C=CC(=C2C(=O)c3ccccc3C2=O)C=C1 (centres undefined)
logD: 1.75

CC(C)CCCCCN1C=CC(=C2C(=O)c3ccccc3C2=O)C=C1
logD: 2.98

CC=CN1C=CC(=C2C(=O)c3ccccc3C2=O)C=C1
logD: 2.75

CC=CN1C=CC(=C2C(=O)c3ccccc3C2=O)C=C1C
logD: 2.6

CCCN1C=CC(=C2C(=O)c3ccccc3C2=O)C=C1
logD: 2.64

CC1=CC(=C2C(=O)c3ccccc3C2=O)C=CN1C(C)C
logD: 2.33

COCCN1C=CC(=C2C(=O)c3ccccc3C2=O)C=C1
logD: 2.11

CC1=CC(=C2C(=O)c3ccccc3C2=O)C=CN1C
logD: 1.9

CCCCCCCCCN1C=CC(=C2C(=O)c3ccccc3C2=O)C=C1
logD: 3.45

CCCCN1C=CC(=C2C(=O)c3ccccc3C2=O)C=C1
logD: 3.05

CCCN1C=CC(=C2C(=O)c3ccccc3C2=O)C=C1C
logD: 2.63

CC1=CC(=C2C(=O)c3ccccc3C2=O)C=C(C)N1C
logD: 2.5

CCN1C=CC(=C2C(=O)c3ccccc3C2=O)C=C1
logD: 2.12

C=CCN1C=CC(=C2C(=O)c3ccccc3C2=O)C=C1C
logD: 2.54

O=C1C(=C2C=CN(CCc3ccccc3)C=C2)C(=O)c2ccccc21
logD: 3.3

C=CCN1C=CC(=C2C(=O)c3ccccc3C2=O)C=C1
logD: 2.46

CCN1C=CC(=C2C(=O)c3ccccc3C2=O)C=C1C
logD: 2.34

— the SangsterLogP compilation
